Assay: Preformulation compatibility study: amlodipine and benazepril blends, with or without excipients, at accelerated stability conditions; colour change and degradation products by HPLC
Assay type: physicochemical
Conditions: without any excipients
Description: The studies were carried out by blending amlodipine & benazepril and then mixing with excipients in amounts intended to be used in the proposed compositions. For example, amlodipine:benazepril:diluent were blended in the ratio 0.7:1:10, amlodipine:benazepril:disintegrant were blended in the ratio 0.7:1:2, amlodipine:benazepril:binder were blended in the ratio 0.7:1:2, and amlodipine:benazepril:lubricant were blended in the ratio 0.7:1:0.5.

Related substances: Amlodipine impurity D (Initial): 0.000%
Related substances: Benazepril impurity C (Initial): 0.130%
Related substances: Benazepril impurity G (Initial): 0.060%
Related substances: Total impurities (Initial): 0.260%
Related substances: Amlodipine impurity D (charged on stability, 3M): 0.000%
Related substances: Benazepril impurity C (charged on stability, 3M): 0.143%
Related substances: Benazepril impurity G (charged on stability, 3M): 0.000%
Related substances: Total impurities (charged on stability, 3M): 0.267%
Structure (SMILES): CCOC(=O)[C@H](CCc1ccccc1)N[C@H]1CCc2ccccc2N(CC(=O)O)C1=O [Benazepril alone, Benazepril]

— US10130624B2, “Pharmaceutical compositions of amlodipine and benazepril” (LUPIN LIMITED, priority 2005, dated 2018)
